Test system: melanin pigment deposition in skin after sunlight exposure
Assay: Whitening effect testing (hypochromic effect on sun-exposed upper arm skin of testees)
Type: in vivo, human
Conditions: applied twice daily for 4 weeks after sunlight exposure, 8 persons per group
Protocol: (§1) 40 testees were exposed to summer sunlight for 4 hours (2 hours a day for 2 days) and the skin of an inner lateral part of their upper arm was used as the subject of the test. Beginning after 5 days from the day they were exposed to the sunlight, each sample was applied to this skin once in the morning and once in the afternoon for 4 weeks. The panel was divided into 5 groups with 8 persons in each group. Testing was conducted using the following formulations.
The hypochromic effect after the application was evaluated based on the criteria below.
Samples were prepared with the blend compositions described in the aforementioned test method, and the drugs listed in Table 2 were used to compare the whitening effect.
as §1, with “From” for “from”
Samples were prepared with the blend compositions described in the aforementioned test method, and the drugs listed in Table 4 were used to compare the whitening effect.
Samples were prepared with the blend compositions described in the aforementioned test method, and the drugs listed in Table 6 were used to compare the whitening effect.
as §1, with “groups 5” for “groups”
Samples were prepared with the blend compositions described in the aforementioned test Method, and the drugs listed in Table 8 were used to compare the whitening effect.

Oc1ccc(O)cc1 [Hydroquinone]
Effect (hypochromic effect) (Table 2, Blend Ratio 1.0 wt % in lotion): Δ (Δ: Very effective or effective on 30% to less than 50% testees)
Effect (hypochromic effect) (Table 4, Blend Ratio 1.0 wt % in lotion): Δ (Δ: Very effective or effective on 30% to less than 50% testees)
Effect (hypochromic effect) (Table 6, Blend Ratio 1.0 % in lotion): Δ (Δ: Very effective or effective on 30% to less than 50% testees)
Effect (hypochromic effect) (Table 8, Blend Ratio (5) 1.0 in lotion): Δ (Δ: Very effective or effective on 30% to less than 50% testees)
